According to patent publication US7348425B2, “Inhibitors of HCV replication” (Bristol-Myers Squibb Company, priority 2004, dated 2008):

What was measured:
[1] = target: T1, HCV NS5B RdRp genotype 1b (Hepatitis C virus genotype 1b, UniProt Q9WMX2); test: Modified HCV NS5B RdRp enzyme assay (with preincubation); format: biochemical; conditions: modified method (with preincubation)
T1 construct: The protein was expressed with an 18 amino acid C-terminal truncation to enhance the solubility; made in house; host or cells: E. coli BL21 (DE3), pET21a
T1 sequence (Q9WMX2 2420-2992): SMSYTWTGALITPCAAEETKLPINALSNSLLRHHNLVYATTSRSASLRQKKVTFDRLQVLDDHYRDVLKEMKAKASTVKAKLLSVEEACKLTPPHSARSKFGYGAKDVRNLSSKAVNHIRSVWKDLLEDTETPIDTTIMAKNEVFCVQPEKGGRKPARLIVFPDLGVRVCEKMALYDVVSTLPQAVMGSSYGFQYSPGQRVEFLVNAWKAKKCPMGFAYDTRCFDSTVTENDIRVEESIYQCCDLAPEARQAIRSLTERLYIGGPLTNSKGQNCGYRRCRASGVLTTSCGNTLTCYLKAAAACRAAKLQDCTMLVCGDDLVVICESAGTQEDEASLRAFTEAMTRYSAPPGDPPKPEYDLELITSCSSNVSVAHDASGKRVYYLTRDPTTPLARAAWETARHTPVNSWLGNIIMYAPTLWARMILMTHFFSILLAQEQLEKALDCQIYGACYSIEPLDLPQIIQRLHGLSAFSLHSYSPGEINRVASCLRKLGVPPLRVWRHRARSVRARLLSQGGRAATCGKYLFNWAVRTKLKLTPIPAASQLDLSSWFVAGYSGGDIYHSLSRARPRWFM
Summary of the method: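 C-terminally truncated (Δ18) genotype 1b NS5B from E. coli was preincubated (14 nM) with compound, then reaction started with polyA template (0.2 nM), ³H-UTP (0.29 μM) and dT12 primer (20 nM) precaptured on SPA beads. Reaction ran 4 h at 30 °C in pH 7.5 Hepes buffer with 2% DMSO. IC50 came from seven concentrations.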

HCV replicon = HCV replicon FRET assay; format: cell-based; conditions: Hepatitis C virus; FRET assay; read-out: EC50
Summary of the method: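 Replicon cells (± Renilla luciferase reporter) incubated with titrated compound at 37 °C; NS3 protease activity read by FRET peptide cleavage (20 uM EDANS/DABCYL substrate, 340/490 nm kinetic) or luciferase.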

SMILES | IC50 [1] | EC50 (HCV replicon)
O=C(NS(=O)(=O)N1CCCC1)c1ccc2c(C3CCCCC3)c3n(c2c1)CC(C(=O)N1CCOCC1)Cc1ccccc1-3 (stereo not shown) | 20 to 1000 nM | 10 to 1000 nM
CN(C)S(=O)(=O)NC(=O)c1ccc2c(C3CCCCC3)c3n(c2c1)CC(C(=O)N1CCNCC1)=Cc1ccccc1-3 | 20 to 1000 nM | 10 to 1000 nM
CC(C)(C)OC(=O)N1CCn2c(c(C3CCCCC3)c3ccc(C(=O)O)cc32)-c2ccccc21 | 20 to 1000 nM | 1000 to 10000 nM
CN(C)S(=O)(=O)NC(=O)c1ccc2c(C3CCCCC3)c3n(c2c1)CCN(C(=O)OC(C)(C)C)c1ccccc1-3 | 20 to 1000 nM | 10 to 1000 nM
CN(C)S(=O)(=O)NC(=O)c1ccc2c(C3CCCCC3)c3n(c2c1)CCNc1ccccc1-3 | 20 to 1000 nM | 10 to 1000 nM
COC(=O)c1ccc2c(C3CCCCC3)c3n(c2c1)CC(C(=O)O)=Cc1ccc(Cl)cc1-3 | > 1000 nM | 1000 to 10000 nM
O=C(O)c1ccc2c(C3CCCCC3)c3n(c2c1)CC(C(=O)N1CCOCC1)=Cc1ccc(Cl)cc1-3 | 20 to 1000 nM | 1000 to 10000 nM
CN(C)S(=O)(=O)NC(=O)c1ccc2c(C3CCCCC3)c3n(c2c1)CC(C(=O)N1CCOCC1)=Cc1ccc(Cl)cc1-3 | 20 to 1000 nM | 1000 to 10000 nM
COC(=O)C1=C(C)c2ccccc2-c2c(C3CCCCC3)c3ccc(C(=O)OC)cc3n2C1 | > 1000 nM | 10 to 1000 nM
CN(C)S(=O)(=O)NC(=O)c1ccc2c(C3CCCCC3)c3n(c2c1)CC(C(=O)N1CCOCC1)=Cc1ccncc1-3 | 20 to 1000 nM | 10 to 1000 nM
COC(=O)c1ccc2c(C3CCCCC3)c3n(c2c1)CC(C(=O)O)=C(C)c1ccccc1-3 | > 1000 nM | 1000 to 10000 nM
Cn1c(C(=O)O)cc2cc(NC(=O)C3(NC(=O)c4ccc5c(C6CCCCC6)c6n(c5c4)CCNc4ccccc4-6)CCCC3)ccc21 | 20 to 1000 nM | 10 to 1000 nM
O=C(O)c1ccc2c(c1)C1CCN(C(=O)N3CCOCC3)c3ccccc3C1=C2C1CCCCC1 (stereo not shown) | > 1000 nM | 1000 to 10000 nM
CN(C)C(=O)NC(=O)c1ccc2c(C3CCCCC3)c3n(c2c1)CC(C(=O)N1CCOCC1)=Cc1ccccc1-3 | 20 to 1000 nM | 1000 to 10000 nM
CN(C)S(=O)(=O)NC(=O)c1ccc2c(c1)N1C(O)c3cc(OCc4ccccc4)ccc3C1C2 (stereo not shown) | 20 to 1000 nM | 10 to 1000 nM
COC(=O)c1ccc2c(C3CCCCC3)c3n(c2c1)CC(C(=O)N1CCOCC1)=C(C)c1ccccc1-3 | > 1000 nM | 1000 to 10000 nM

SMILES | IC50 [1] | EC50 (HCV replicon)
CC1=C(C(=O)N2CCOCC2)Cn2c(c(C3CCCCC3)c3ccc(C(=O)O)cc32)-c2ccccc21 | 20 to 1000 nM | 10 to 1000 nM
COC(=O)c1ccc2c(C3CCCCC3)c3n(c2c1)C(O)c1cc(Cl)ccc1-3 (stereo not shown) | > 1000 nM | 10 to 1000 nM
COc1cc(CNC(=O)c2ccc3c(C4CCCCC4)c4n(c3c2)CC(C(=O)N2CCOCC2)=Cc2ccccc2-4)ccc1O | 20 to 1000 nM | 10 to 1000 nM
COC(=O)C1=Cc2cc(Cl)ccc2-c2c(C3CCCCC3)c3ccc(C(=O)OC)cc3n2C1 | > 1000 nM | 1000 to 10000 nM
CCN(CC)C1CCN(C(=O)C2=Cc3ccccc3-c3c(C4CCCCC4)c4ccc(C(=O)NS(=O)(=O)N(C)C)cc4n3C2)C1 (stereo not shown) | 20 to 1000 nM | 10 to 1000 nM
CN(C)S(=O)(=O)NC(=O)c1ccc2c(C3CCCCC3)c3n(c2c1)CC(C(=O)N1CCCOCC1)=Cc1ccccc1-3 | 20 to 1000 nM | 10 to 1000 nM
O=C(O)c1ccc2c(C3CCCCC3)c3n(c2c1)CCN(C(=O)Nc1ccccc1)c1ccccc1-3 | 20 to 1000 nM | 1000 to 10000 nM
O=C(O)c1ccc2c(C3CCCCC3)c3n(c2c1)CCN(C(=O)NC1CCCC1)c1ccccc1-3 | 20 to 1000 nM | 10 to 1000 nM
CC(C)N(C)C(=O)C1=Cc2ccccc2-c2c(C3CCCCC3)c3ccc(C(=O)NS(=O)(=O)N(C)C)cc3n2C1 | 20 to 1000 nM | 10 to 1000 nM
CN(CC(O)CO)C(=O)C1=Cc2ccccc2-c2c(C3CCCCC3)c3ccc(C(=O)NS(=O)(=O)N(C)C)cc3n2C1 (stereo not shown) | 20 to 1000 nM | 10 to 1000 nM
CC(C)N(C(=O)C1=Cc2ccccc2-c2c(C3CCCCC3)c3ccc(C(=O)NS(=O)(=O)N(C)C)cc3n2C1)C(C)C | 20 to 1000 nM | 10 to 1000 nM
CCN(CC)C(=O)C1=Cc2ccccc2-c2c(C3CCCCC3)c3ccc(C(=O)NS(=O)(=O)N(C)C)cc3n2C1 | 20 to 1000 nM | 10 to 1000 nM
COC(=O)C1=Cc2cc(OCc3ccccc3)ccc2-c2c(C3CCCCC3)c3ccc(C(=O)NS(=O)(=O)N(C)C)cc3n2C1 | 20 to 1000 nM | 10 to 1000 nM
CC1CN(C(=O)C2=Cc3ccccc3-c3c(C4CCCCC4)c4ccc(C(=O)NS(=O)(=O)N(C)C)cc4n3C2)CC(C)N1 (stereo not shown) | 20 to 1000 nM | 10 to 1000 nM
CN(CCO)C(=O)C1=Cc2ccccc2-c2c(C3CCCCC3)c3ccc(C(=O)NS(=O)(=O)N(C)C)cc3n2C1 | 20 to 1000 nM | 10 to 1000 nM
CN(C)C(=O)N1CCn2c(c(C3CCCCC3)c3ccc(C(=O)NS(=O)(=O)N(C)C)cc32)-c2ccccc21 | 20 to 1000 nM | 10 to 1000 nM
